Assay results from PMC6382696, “Drug Repurposing: The Anthelmintics Niclosamide and Nitazoxanide Are Potent TMEM16A Antagonists That Fully Bronchodilate Airways” (Frontiers in Pharmacology, 2019).
Read-outs that look alike come from different tables or passages of the source.

Biological target: T1, hTMEM16A (abc) (Homo sapiens, UniProt Q5XXA6, DEL476-501)
T1 sequence (Q5XXA6 with tags, fused parts or gaps isoform Q5XXA6-5 DEL539-564): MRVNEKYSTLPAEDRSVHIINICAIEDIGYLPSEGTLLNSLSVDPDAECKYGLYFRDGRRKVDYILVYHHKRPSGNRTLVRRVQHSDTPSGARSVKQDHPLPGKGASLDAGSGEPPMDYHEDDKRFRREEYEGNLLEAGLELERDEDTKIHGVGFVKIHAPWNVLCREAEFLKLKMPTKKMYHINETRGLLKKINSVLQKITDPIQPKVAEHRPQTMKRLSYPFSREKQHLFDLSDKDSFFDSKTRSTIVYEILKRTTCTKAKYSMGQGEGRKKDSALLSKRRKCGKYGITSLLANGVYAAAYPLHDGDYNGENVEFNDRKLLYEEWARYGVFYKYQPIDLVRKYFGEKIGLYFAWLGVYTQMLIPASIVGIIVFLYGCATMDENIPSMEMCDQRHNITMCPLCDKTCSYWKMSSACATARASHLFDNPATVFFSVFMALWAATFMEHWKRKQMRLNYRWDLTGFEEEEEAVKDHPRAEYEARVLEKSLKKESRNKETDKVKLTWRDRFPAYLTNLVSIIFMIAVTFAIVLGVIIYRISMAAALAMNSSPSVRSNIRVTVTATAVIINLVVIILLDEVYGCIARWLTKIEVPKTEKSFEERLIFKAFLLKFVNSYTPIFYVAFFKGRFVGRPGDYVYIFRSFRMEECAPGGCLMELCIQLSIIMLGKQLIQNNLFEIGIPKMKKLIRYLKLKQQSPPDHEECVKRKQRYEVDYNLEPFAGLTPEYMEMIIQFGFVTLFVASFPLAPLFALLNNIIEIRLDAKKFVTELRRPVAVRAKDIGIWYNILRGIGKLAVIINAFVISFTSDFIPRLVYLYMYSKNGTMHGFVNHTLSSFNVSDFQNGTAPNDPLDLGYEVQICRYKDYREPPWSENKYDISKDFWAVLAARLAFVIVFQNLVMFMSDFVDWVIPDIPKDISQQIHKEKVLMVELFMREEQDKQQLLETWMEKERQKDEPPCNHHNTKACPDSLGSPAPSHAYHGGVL
Assay: TMEM16A halide-sensitive YFP (eYFP) high-throughput screening assay
Type: cell-based
Parameters: expressed in transfected cells
Details: for remaining activity at 5 µM / inhibition at 5 µM: 5 μM compound; for remaining activity at 5 µM: POC 0 = full block by benzbromarone, read-out: POC (percent of control) halide-sensitive YFP response in HTS; for inhibition at 5 µM: read-out: % inhibition of halide-sensitive YFP response during HTS
Experimental: The High-Throughput-Screening clone HEK293T:eYFP: TMEM16A(abc) stably expressing eYFP (H149Q,I153L) and human TMEM16A(abc) was generated by stable transfection followed by functional clone selection. HEK293T:eYFP (H149Q,I153L) was cultivated in propagation medium DMEM (PAN #P04-03550) containing 10% FBS (PAN #3302-P281402), 1x Pen/Strep (PAN #P06-07100), 1x L-glutamine (PAN #P04-80100), 10 mM HEPES (PAN #P05-01100) and 0.5 μg/ml puromycin (Sigma #P7255) and transfected with pIREShyg3:huTMEM16A(abc). Stable cell pool was generated by cultivation in propagation medium containing 0.5 μg/ml puromycin and 200 μg/ml hygromycin B for 20 days. Cell pool was then diluted in the same medium and seeded in 384-well microtiter plates. Grown clones were replicated into daughter plates using a CyBio Felix pipetting platform (Analytik Jena AG). Daughter plates were analyzed using the eYFP assay essentially as described in the HTS protocol below using a FLIPR-Tetra. Clones showing maximal quenching of eYFP fluorescence intensity after addition of trigger solution (assay buffer containing NaI and ionomycin) were selected for propagation from the mother plate and further characterized with regard to HTS assay development performance parameters including inhibition by the benchmark compound benzbromarone, S/B and relevant HTS quality control statistics (Z-factor, Z′-factor, RZ-factor, RZ′-factor). One clone was finally selected as HTS clone and used throughout the entire HTS campaign to identify TMEM16A antagonists.
For the HTS screen, the screening cell line HEK293T:eYFP(H149Q,I153L):TMEM16A(abc) stably expressing halide sensitive YFP (eYFP (H149Q,I153L)) and human TMEM16A(abc) were propagated in DMEM (PAN #P04-03550) containing 10% FBS (PAN #3302-P281402), 1x Pen/Strep (PAN #P06-07100), 1x L-glutamine (PAN #P04-80100), 10 mM HEPES (PAN #P05-01100), 0.5 μg/ml puromycin (Sigma #P7255), and 150 μg/ml hygromycin B (Life Technologies #10687-010) in Corning TC-treated flasks. Twenty four hours prior to the assay 11,000 cells were seeded per well in 30 μl assay plating medium [propagation medium containing 0.01% Pluronic F-68 (PAN #P08-2100)] in Corning CellBIND 384-Well Flat Clear Bottom Black Polystyrene Microplates (Corning #3683) and cultivated for 24 h at 37°C. Before initiating the fully automated and scheduled HTS sequence, cell plates were transferred to an incubator and stored at RT and 0% CO2. Library compounds were delivered in Greiner 384 PP plates (Greiner #784201) containing 1mM compound dissolved in DMSO in columns 1–22 and DMSO in columns 23 and 24 and were stored in a stacker at RT. Further dilutions of compounds were generated by fully automated liquid handling using a CyBio 384-well/25 μl pipetting head (Analytik Jena AG) by diluting 0.5 μl compound (1 mM in DMSO) in 20 μl assay buffer [1xHBSS (Life Technologies #14025050) containing 10 mM HEPES (PAN #P05-01100) and 0.01% Pluronic F-68 (PAN #P08-2100), adjusted to pH 7.4] in Greiner 384 PP plates (Greiner #784201). Intermediate compound plates contained 25 μM library compounds in assay buffer containing 2.5% DMSO in columns 1–22, assay buffer containing 2.5% DMSO as neutral control in column 23 and 100 μM Benzbromarone (Sigma #B5774) in assay buffer containing 2.5% DMSO in column 24 as ligand control (benchmark antagonist) and were stored in a stacker at RT. Simultaneous to compound dilution medium was aspirated from cell plates using a Biotek 405 microplate washer followed by washing the cells twice with 65 μl/well assay buffer. With the final aspiration of assay buffer, the residual volume was adjusted to 15 μl. […] Cell plates were incubated for 30 min at RT and 0% CO2. After incubation cell plates were transferred to a FLIPR-Tetra and 25 μl trigger solution [assay buffer containing 20 mM sodium iodide (Sigma #383112) and 4 μM ionomycin (Sigma #I0634; stock solution 10 mM in DMSO)] was added before reading iodide-quenching of eYFP fluorescence intensity. […]

[1] = HEK293T:eYFP:TMEM16A(abc), 30 min preincubation, 10 mM iodide, 2 μM ionomycin, read-out: IC50 in the eYFP HTS assay

Row | IC50 (supplement, read-out: IC50, TMEM16A (abc) eYFP HTS assay) [nM] | Compound | remaining activity at 5 µM [%] | inhibition at 5 µM [%] | IC50 (22-point dose-response, read-out: IC50, TMEM16A eYFP assay dose response of the HTS campaign) [nM] | IC50 [1] [nM]
1 |  | N#Cc1c(C(F)(F)F)cc(O)n2c1nc1ccccc12 [1PBC] | 74.8 | 25.2 | 1050 | 
2 |  | COc1cc([N+](=O)[O-])ccc1NC(=O)c1cc(Cl)c2ccccc2c1O [Cpd 4] | 61.1 ± 7.8 | 38.9 |  | 970
3 | 2840 | O=C(Nc1ncc([N+](=O)[O-])s1)c1cccs1 [NTTP] |  |  |  | 
4 |  | O=C(Nc1ccc([N+](=O)[O-])cc1Cl)c1cc(Cl)ccc1O [Niclosamide] | 69 ± 3.3 | 31 |  | 140
